Laboratory results as given in patent US20250011316A1, “PEROXIREDOXIN 3 INHIBITORS AND METHODS OF USE FOR TREATING CANCER” (Wake Forest University Health Sciences, priority 2022, published 2025).
In brackets after ≈: the same amount, converted by molar mass.

What was measured:
purified human PRX3 = target: T1, purified human PRX3 (Homo sapiens, UniProt P30048); assay: Biochemical PRX3 Inhibition Assay (non-reducible crosslink by SDS PAGE + single adduct by MALDI-TOF MS); conditions: 100 μM PRX3 with TRX2/thioredoxin reductase/NADPH system and hydrogen peroxide, 1-2 hr at 37° C.
T1 construct: made in house
T1 sequence (P30048 62-256): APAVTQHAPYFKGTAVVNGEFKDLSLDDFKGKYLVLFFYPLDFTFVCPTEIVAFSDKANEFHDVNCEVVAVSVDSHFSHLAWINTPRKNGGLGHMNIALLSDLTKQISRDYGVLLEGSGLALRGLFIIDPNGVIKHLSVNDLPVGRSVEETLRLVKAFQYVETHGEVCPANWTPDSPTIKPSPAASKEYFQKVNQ
In short: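 Purified human PRX3 (100 µM) cycled with TRX2, thioredoxin reductase, NADPH regenerating system and H2O2, incubated with compound 1–2 h at 37 °C. Non-reducible crosslink quantified by densitometry of SDS-PAGE (~46 vs ~23 kDa) after DTT; single-adduct fraction from MALDI-TOF MS peak intensities, background-corrected against DMSO.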

Solubility Assay (HPLC) = assay type: physicochemical; conditions: HEPES/NaCl buffer, aqueous with cosolvent or surfactant or cyclodextrin, kinetic from dmso stock; 20 mM HEPES, 100 mM NaCl, pH 7.5, 18-24 hours at ambient temperature; read-out: Solubility
In short: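 Compound from 20 mM DMSO stock added to 20 mM HEPES, 100 mM NaCl, pH 7.5, rotated 18-24 h at ambient temperature, then centrifuged 10 min at 20,000×g to remove solids. Supernatant diluted in DMSO and quantified by HPLC peak area against the closest of 200 μM and 20 μM standards, corrected for dilution.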

[1] = test system: Enterococcus hirae (ATCC #10541); assay: Antimicrobial Activity Assay (MIC / growth inhibition); assay type: cell-based; conditions: ATCC10541; Enterococcus hirae; analogs tested at 20 μM final concentration
Method: The overnight growth was then diluted into growth media to make a single solution of E. hirae with a final optical density at 600 nm=0.02 AU. A 20 mM stock solution of Thiostrepton in DMSO was made and used to make multiple dilutions of TS in DMSO. Each TS dilution (0.1 mL) was then added to a test tube containing 10 mL of the diluted E. hirae and grown at 37° C. overnight while shaking at 180 rpm. The next morning, each tube was visually inspected to determine if the cells grew. Final concentrations tested were 0.120, 0.090, 0.075, 0.060, 0.045, 0.030, and 0.015 μM TS. […] Three replicates were made on three separate days (n=9). […] For TS analogs, the dilute E. hirae was treated with 20 μM final concentration of each analog (three replicates each). […] DMSO was used as a positive control (complete cell growth) and 20 μM thiostrepton was used as a negative control.

[2] = test system: human SK—OV-3 ovarian cancer cells; assay: Cellular Activity Assay (cytotoxicity, crystal violet); assay type: cell-based; conditions: SK—OV-3 cells, treated for 48 hr, 0.1-100 μM, crystal violet absorbance at 540 nm
In short: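 SK-OV-3 cells plated, allowed 24 h recovery, then treated 48 hr with compound at 0.1-100 μM. Live cells were fixed (3.0% formaldehyde), stained with 0.1% crystal violet and read at 540 nm. EC50 was fitted after normalizing to matched-DMSO controls.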

Row | Compound | PRX3 Inhibition (Crosslink + Mono-adduct) (purified human PRX3) | solubility (Solubility Assay (HPLC)) [µM] | MIC [1] [µM] | EC50 ([2]; Homo sapiens) [µM] | EC50 ([2]; Homo sapiens, SK-OV-3, 48 h) [µM] | EC50 [2] [µM]
1 | C=C(NC(=O)c1csc(N2CCC(NC(=O)OC(C)(C)C)CC2)n1)C(=O)NC(=C)C(=O)OC [Compound 12, Methyl 2-(2-(2-(4-((tert-butoxycarbonyl)amino)piperidin-1-yl)thiazole-4-carboxamido)acrylamido)acrylate] | +++ (>90%) | < 100 | > 20 | 1 to 10 | – | –
2 | C=C(NC(=O)c1csc(N2CCC(NC(=O)CCCCCNC(=O)OC(C)(C)C)CC2)n1)C(=O)NC(=C)C(=O)OC [Compound 13, Methyl 2-(2-(2-(4-(6-((tert-butoxycarbonyl)amino)hexanamido)piperidin-1-yl)thiazole-4-carboxamido)acrylamido)acrylate] | +++ (>90%) | 100 to 1000 (≈ 59.3 to 593 µg/mL) | > 20 | – | 1 to 10 | –
3 | C=C(NC(=O)c1csc(-c2cccc(C(=O)OC(C)(C)C)c2)n1)C(=O)NC(=C)C(=O)OC [Compound 14, Tert-butyl 3-(4-((3-((3-methoxy-3-oxoprop-1-en-2-yl)amino)-3-oxoprop-1-en-2-yl)carbamoyl)thiazol-2-yl)benzoate] | +++ (>90%) | < 100 | > 20 | 25 to 100 | – | –
4 | C=C(NC(=O)c1csc(N2CCC(C(=O)NCCNC(=O)OC(C)(C)C)CC2)n1)C(=O)NC(=C)C(=O)OC [Compound 15, Methyl 2-(2-(2-(4-((2-((tert-butoxycarbonyl)amino)ethyl)carbamoyl)piperidin-1-yl)thiazole-4-carboxamido)acrylamido)acrylate] | +++ (>90%) | < 100 | > 20 | 1 to 10 | – | –
5 | C=C(NC(=O)c1csc(-c2ccc(CNC(=O)CCCCCNC(=O)OC(C)(C)C)cc2)n1)C(=O)NC(=C)C(=O)OC [Compound 16, Methyl 2-(2-(2-(4-((6-((tert-butoxycarbonyl)amino)hexanamido)methyl)phenyl)thiazole-4-carboxamido)acrylamido)acrylate] | +++ (>90%) | < 100 | > 20 | – | – | 10 to 25
6 | C=C(NC(=O)c1csc(N2CCOCC2)n1)C(=O)NC(=C)C(=O)OC [Compound 17, Methyl 2-(2-(2-morpholinothiazole-4-carboxamido)acrylamido)acrylate] | +++ (>90%) | 100 to 1000 (≈ 36.6 to 366 µg/mL) | > 20 | 10 to 25 | – | –
7 | C=C(NC(=O)c1csc(N2CCN(C(=O)OC(C)(C)C)CC2)n1)C(=O)NC(=C)C(=O)OC [Compound 18, Tert-butyl 4-(4-((3-((3-methoxy-3-oxoprop-1-en-2-yl)amino)-3-oxoprop-1-en-2-yl)carbamoyl)thiazol-2-yl)piperazine-1-carboxylate] | + (5-50%) | 100 to 1000 (≈ 46.6 to 466 µg/mL) | > 20 | 25 to 100 | – | –
8 | C=C(NC(=O)c1csc(N2CCC(NC(=O)CCCCCN=[N+]=[N-])CC2)n1)C(=O)NC(=C)C(=O)OC [Compound 19, Methyl 2-(2-(2-(4-(6-azidohexanamido)piperidin-1-yl)thiazole-4-carboxamido)acrylamido)acrylate] | +++ (>90%) | < 100 | > 20 | 1 to 10 | – | –
9 | C=C(NC(=O)c1csc(N2CCC[C@H](NC(=O)OC(C)(C)C)C2)n1)C(=O)NC(=C)C(=O)OC [Compound 20, Methyl (S)-2-(2-(2-(3-((tert-butoxycarbonyl)amino)piperidin-1-yl)thiazole-4-carboxamido)acrylamido)acrylate] | +++ (>90%) | < 100 | > 20 | 1 to 10 | – | –
10 | C=C(NC(=O)c1csc(N2CCC(N(C)C(=O)OCC)CC2)n1)C(=O)NC(=C)C(=O)OC [Compound 21, Methyl 2-(2-(2-(4-((ethoxycarbonyl)(methyl)amino)piperidin-1-yl)thiazole-4-carboxamido)acrylamido)acrylate] | +++ (>90%) | < 100 | > 20 | 1 to 10 | – | –
11 | C=C(NC(=O)c1csc(N2CCC(CNC(=O)OCC)CC2)n1)C(=O)NC(=C)C(=O)OC [Compound 22, Methyl 2-(2-(2-(4-(((ethoxycarbonyl)amino)methyl)piperidin-1-yl)thiazole-4-carboxamido)acrylamido)acrylate] | +++ (>90%) | < 100 | > 20 | 1 to 10 | – | –
12 | C=C(NC(=O)c1csc(N2CC[C@@H](NC(=O)OCC)C2)n1)C(=O)NC(=C)C(=O)OC [Compound 23, Methyl (R)-2-(2-(2-(3-((ethoxycarbonyl)amino)pyrrolidin-1-yl)thiazole-4-carboxamido)acrylamido)acrylate] | +++ (>90%) | < 100 | > 20 | 1 to 10 | – | –
13 | C=C(NC(=O)c1csc(-c2ccc(OCCOC)cc2)n1)C(=O)NC(=C)C(=O)OC [Compound 24, Methyl 2-(2-(2-(4-(2-methoxyethoxy)phenyl)thiazole-4-carboxamido)acrylamido)acrylate] | ++ (50-90%) | < 100 | > 20 | 1 to 10 | – | –
14 | C=C(NC(=O)c1csc(-c2ccc(NC(=O)CCCCCN=[N+]=[N-])cc2)n1)C(=O)NC(=C)C(=O)OC [Compound 25, Methyl 2-(2-(2-(4-(6-azidohexanamido)phenyl)thiazole-4-carboxamido)acrylamido)acrylate] | ++ (50-90%) | < 100 | > 20 | 10 to 25 | – | –
15 | C=C(NC(=O)c1csc(-c2ccc(CNC(=O)OCCOC)cc2)n1)C(=O)NC(=C)C(=O)OC [Compound 26, Methyl 2-(2-(2-(4-((((2-methoxyethoxy)carbonyl)amino)methyl)phenyl)thiazole-4-carboxamido)acrylamido)acrylate] | ++ (50-90%) | 100 to 1000 (≈ 48.9 to 489 µg/mL) | > 20 | 1 to 10 | – | –
16 | C=C(NC(=O)c1csc(-c2cccc(COCCOC)c2)n1)C(=O)NC(=C)C(=O)OC [Compound 27, Methyl 2-(2-(2-(3-((2-methoxyethoxy)methyl)phenyl)thiazole-4-carboxamido)acrylamido)acrylate] | +++ (>90%) | < 100 | > 20 | 1 to 10 | – | –
17 | C=C(NC(=O)c1csc(N2CCCC(C(=O)NCC(C)C)C2)n1)C(=O)NC(=C)C(=O)OC (stereo not shown) [Compound 28, Methyl 2-(2-(2-(3-(isobutylcarbamoyl)piperidin-1-yl)thiazole-4-carboxamido)acrylamido)acrylate] | +++ (>90%) | < 100 | > 20 | 1 to 10 | – | –
18 | C=C(NC(=O)c1csc(N2CCC(C(=O)NCCCOC(C)C)CC2)n1)C(=O)NC(=C)C(=O)OC [Compound 29, Methyl 2-(2-(2-(4-((3-isopropoxypropyl)carbamoyl)piperidin-1-yl)thiazole-4-carboxamido)acrylamido)acrylate] | +++ (>90%) | 100 to 1000 (≈ 50.8 to 508 µg/mL) | > 20 | 1 to 10 | – | –
19 | C=C(NC(=O)c1csc(-c2ccc(COC(=O)NCc3ccccc3)cc2)n1)C(=O)NC(=C)C(=O)OC [Compound 30, Methyl 2-(2-(2-(4-(((benzylcarbamoyl)oxy)methyl)phenyl)thiazole-4-carboxamido)acrylamido)acrylate] | + (5-50%) | < 100 | > 20 | 25 to 100 | – | –
